From ChEMBL document CHEMBL3132769, “Fragment growing to retain or alter the selectivity of anchored kinase hinge-binding fragments” (Medchemcomm, 2014)

Experiments:
[1] = biological target: Tyrosine-protein kinase ABL2 (Homo sapiens) (UniProt P42684); experiment: Inhibition of human truncated Arg expressed in baculovirus assessed as substrate phosphorylation using fluorescence-labelled peptides as substrate at 0.2 uM after 90 mins by microfluidic peptide phosphorylation assay
[2] = system: T1, Receptor-type tyrosine-protein kinase FLT3 (Homo sapiens), P36888 [D835Y]; experiment: Inhibition of human FLT3 D835Y mutant catalytic domain expressed in baculovirus assessed as substrate phosphorylation using fluorescence-labelled peptides as substrate at 0.2 uM after 90 mins by microfluidic peptide phosphorylation assay
T1 sequence (whole entry): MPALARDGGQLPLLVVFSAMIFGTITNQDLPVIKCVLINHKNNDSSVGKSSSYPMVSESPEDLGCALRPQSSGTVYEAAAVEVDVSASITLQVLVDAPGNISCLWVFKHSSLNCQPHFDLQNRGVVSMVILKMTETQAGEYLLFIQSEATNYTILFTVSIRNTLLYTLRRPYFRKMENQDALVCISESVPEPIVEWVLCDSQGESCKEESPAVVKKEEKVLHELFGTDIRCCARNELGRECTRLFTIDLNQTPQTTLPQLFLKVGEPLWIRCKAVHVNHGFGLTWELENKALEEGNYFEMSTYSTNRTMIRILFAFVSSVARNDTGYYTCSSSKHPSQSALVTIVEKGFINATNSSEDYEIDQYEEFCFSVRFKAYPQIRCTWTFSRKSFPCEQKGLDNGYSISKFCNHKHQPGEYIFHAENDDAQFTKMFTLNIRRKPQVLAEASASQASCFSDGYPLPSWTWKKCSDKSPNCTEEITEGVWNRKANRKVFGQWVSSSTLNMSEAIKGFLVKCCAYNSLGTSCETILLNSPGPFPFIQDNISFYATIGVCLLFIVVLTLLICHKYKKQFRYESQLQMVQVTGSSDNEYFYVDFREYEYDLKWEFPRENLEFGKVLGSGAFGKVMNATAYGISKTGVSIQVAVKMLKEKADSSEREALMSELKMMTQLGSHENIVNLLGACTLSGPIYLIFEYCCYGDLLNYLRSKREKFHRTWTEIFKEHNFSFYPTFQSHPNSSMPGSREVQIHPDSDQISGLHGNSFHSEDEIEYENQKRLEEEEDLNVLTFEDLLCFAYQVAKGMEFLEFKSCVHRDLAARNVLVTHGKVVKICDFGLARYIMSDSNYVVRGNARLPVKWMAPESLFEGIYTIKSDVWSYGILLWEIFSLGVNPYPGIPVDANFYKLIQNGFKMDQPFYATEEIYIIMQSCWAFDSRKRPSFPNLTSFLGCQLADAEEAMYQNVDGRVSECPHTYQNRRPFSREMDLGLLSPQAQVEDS

[3] = biological target: MAP/microtubule affinity-regulating kinase 3 (Homo sapiens) (UniProt P27448); experiment: Inhibition of human full length c-TAK1 expressed in Escherichia coli cell assessed as substrate phosphorylation using fluorescence-labelled peptides as substrate at 420 uM after 90 mins by microfluidic peptide phosphorylation assay
[4] = biological target: Epidermal growth factor receptor (Homo sapiens) (UniProt P00533); experiment: Inhibition of human EGFR catalytic domain expressed in baculovirus assessed as substrate phosphorylation using fluorescence-labelled peptides as substrate at 9 uM after 90 mins by microfluidic peptide phosphorylation assay
[5] = biological target: Serine/threonine-protein kinase MARK2 (Homo sapiens) (UniProt Q7KZI7); experiment: Inhibition of human full length MARK2 expressed in baculovirus assessed as substrate phosphorylation using fluorescence-labelled peptides as substrate at 9 uM after 90 mins by microfluidic peptide phosphorylation assay
[6] = biological target: Serine/threonine-protein kinase PAK 2 (Homo sapiens) (UniProt Q13177); experiment: Inhibition of human truncated PAK2 expressed in Escherichia coli cell assessed as substrate phosphorylation using fluorescence-labelled peptides as substrate at 9 uM after 90 mins by microfluidic peptide phosphorylation assay
[7] = biological target: Glycogen synthase kinase-3 beta (Homo sapiens) (UniProt P49841); experiment: Inhibition of human full length GSK-3 beta expressed in baculovirus assessed as substrate phosphorylation using fluorescence-labelled peptides as substrate at 2 uM after 90 mins by microfluidic peptide phosphorylation assay
[8] = biological target: T2, Aurora kinase C (Homo sapiens) (UniProt Q9UQB9); experiment: Inhibition of human full length AurC expressed in baculovirus assessed as substrate phosphorylation using fluorescence-labelled peptides as substrate at 95 uM after 90 mins by microfluidic peptide phosphorylation assay
T2 sequence (whole entry): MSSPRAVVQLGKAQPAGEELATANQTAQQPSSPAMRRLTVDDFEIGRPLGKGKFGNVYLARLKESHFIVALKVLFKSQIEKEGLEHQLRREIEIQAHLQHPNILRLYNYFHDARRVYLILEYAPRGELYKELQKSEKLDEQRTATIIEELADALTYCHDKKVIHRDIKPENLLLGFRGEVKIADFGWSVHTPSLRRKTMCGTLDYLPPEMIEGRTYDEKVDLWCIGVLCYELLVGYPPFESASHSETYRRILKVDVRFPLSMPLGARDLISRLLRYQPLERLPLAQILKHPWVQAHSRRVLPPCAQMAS

[9] = biological target: T3, Cytoplasmic tyrosine-protein kinase BMX (Homo sapiens) (UniProt P51813); experiment: Inhibition of human full length BMX expressed in baculovirus assessed as substrate phosphorylation using fluorescence-labelled peptides as substrate at 70 uM after 90 mins by microfluidic peptide phosphorylation assay
T3 sequence (whole entry): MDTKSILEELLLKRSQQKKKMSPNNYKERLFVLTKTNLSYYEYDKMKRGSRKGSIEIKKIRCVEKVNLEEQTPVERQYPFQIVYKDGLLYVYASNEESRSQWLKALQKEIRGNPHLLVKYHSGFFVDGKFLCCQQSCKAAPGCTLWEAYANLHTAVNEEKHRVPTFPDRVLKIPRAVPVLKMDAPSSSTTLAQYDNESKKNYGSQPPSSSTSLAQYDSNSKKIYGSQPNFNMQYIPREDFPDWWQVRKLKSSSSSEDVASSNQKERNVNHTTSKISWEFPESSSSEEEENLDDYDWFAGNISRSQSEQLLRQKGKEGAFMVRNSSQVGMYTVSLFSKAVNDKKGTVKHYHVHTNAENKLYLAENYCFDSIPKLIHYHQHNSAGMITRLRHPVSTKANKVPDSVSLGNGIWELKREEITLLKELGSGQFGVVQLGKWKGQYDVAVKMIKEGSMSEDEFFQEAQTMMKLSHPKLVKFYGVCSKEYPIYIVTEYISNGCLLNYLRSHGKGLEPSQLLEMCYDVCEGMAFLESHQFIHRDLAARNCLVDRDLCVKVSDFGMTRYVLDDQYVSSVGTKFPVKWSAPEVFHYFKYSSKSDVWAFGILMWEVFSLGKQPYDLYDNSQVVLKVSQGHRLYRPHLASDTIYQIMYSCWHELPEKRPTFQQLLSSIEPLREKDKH

Sequence of Serine/threonine-protein kinase MARK2 (Homo sapiens) (Q7KZI7 whole entry, the tested form may be a part): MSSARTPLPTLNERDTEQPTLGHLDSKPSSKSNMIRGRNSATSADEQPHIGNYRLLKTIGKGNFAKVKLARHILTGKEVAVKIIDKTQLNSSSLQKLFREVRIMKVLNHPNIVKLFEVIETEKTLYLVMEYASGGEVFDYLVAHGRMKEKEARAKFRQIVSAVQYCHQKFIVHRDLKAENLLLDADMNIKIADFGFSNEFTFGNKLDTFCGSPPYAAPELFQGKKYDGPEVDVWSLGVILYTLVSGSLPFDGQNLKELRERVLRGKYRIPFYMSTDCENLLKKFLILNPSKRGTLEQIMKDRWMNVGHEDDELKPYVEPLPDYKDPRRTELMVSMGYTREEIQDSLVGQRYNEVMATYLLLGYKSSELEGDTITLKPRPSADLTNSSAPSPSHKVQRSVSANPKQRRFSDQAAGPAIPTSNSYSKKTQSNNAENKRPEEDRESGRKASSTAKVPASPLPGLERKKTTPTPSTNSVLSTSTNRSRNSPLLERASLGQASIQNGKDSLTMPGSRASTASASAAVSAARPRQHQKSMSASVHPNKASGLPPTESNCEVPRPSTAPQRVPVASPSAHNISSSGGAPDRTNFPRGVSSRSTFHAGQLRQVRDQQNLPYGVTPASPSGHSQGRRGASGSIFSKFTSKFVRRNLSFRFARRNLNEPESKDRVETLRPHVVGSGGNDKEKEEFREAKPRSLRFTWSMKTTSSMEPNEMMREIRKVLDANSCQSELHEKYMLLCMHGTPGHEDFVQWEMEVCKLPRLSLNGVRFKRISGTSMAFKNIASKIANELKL
Sequence of Tyrosine-protein kinase ABL2 (Homo sapiens) (P42684 whole entry, the tested form may be a part): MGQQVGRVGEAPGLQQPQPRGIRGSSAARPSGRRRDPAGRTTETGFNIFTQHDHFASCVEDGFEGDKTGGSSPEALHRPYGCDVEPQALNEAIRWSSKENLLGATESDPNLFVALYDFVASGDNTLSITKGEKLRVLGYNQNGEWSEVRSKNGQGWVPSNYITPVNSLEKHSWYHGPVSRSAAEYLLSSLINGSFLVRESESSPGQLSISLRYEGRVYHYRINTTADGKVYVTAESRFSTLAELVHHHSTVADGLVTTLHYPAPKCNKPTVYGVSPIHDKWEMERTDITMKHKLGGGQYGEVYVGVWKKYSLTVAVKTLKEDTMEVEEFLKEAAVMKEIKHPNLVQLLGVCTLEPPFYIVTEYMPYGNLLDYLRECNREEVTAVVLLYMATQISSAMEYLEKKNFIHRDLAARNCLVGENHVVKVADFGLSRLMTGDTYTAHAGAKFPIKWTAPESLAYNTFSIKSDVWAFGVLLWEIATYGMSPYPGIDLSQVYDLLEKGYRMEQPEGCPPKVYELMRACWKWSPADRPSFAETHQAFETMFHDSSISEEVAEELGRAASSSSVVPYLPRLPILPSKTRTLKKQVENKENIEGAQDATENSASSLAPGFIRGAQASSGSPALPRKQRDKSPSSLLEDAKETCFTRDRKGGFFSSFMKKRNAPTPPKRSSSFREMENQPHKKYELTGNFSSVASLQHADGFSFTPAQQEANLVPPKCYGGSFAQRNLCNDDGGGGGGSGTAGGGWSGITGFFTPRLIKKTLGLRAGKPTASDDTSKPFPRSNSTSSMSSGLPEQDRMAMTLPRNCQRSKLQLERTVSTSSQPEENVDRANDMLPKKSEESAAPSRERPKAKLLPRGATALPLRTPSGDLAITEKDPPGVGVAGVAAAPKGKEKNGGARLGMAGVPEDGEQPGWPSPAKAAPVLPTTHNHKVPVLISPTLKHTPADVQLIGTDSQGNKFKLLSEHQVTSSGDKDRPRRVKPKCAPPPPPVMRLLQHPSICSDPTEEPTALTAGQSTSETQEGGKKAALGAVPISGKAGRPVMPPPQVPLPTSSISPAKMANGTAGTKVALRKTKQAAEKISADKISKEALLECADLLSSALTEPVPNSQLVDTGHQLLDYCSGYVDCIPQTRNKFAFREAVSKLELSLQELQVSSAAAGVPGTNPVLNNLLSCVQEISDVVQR
Sequence of MAP/microtubule affinity-regulating kinase 3 (Homo sapiens) (P27448 whole entry, looked up, the tested form may be a part): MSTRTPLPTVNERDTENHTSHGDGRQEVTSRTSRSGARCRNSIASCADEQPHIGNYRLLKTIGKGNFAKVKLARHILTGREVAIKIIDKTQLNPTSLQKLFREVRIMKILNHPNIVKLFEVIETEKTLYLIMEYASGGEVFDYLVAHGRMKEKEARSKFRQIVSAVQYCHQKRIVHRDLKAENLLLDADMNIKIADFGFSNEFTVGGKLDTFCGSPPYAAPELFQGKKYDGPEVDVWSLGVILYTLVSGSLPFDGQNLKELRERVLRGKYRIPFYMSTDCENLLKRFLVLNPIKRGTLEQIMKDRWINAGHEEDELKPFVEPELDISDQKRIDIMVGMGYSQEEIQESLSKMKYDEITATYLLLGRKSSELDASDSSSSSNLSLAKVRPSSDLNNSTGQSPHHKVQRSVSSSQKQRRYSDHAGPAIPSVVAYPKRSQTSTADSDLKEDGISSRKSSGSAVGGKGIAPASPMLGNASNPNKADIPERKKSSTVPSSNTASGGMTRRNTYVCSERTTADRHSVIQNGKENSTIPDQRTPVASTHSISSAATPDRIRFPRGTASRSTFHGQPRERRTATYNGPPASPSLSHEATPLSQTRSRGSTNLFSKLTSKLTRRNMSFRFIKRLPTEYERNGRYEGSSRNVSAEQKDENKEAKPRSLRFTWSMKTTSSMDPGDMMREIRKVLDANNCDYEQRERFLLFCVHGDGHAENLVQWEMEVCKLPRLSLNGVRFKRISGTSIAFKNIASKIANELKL
Sequence of Serine/threonine-protein kinase PAK 2 (Homo sapiens) (Q13177 whole entry, the tested form may be a part): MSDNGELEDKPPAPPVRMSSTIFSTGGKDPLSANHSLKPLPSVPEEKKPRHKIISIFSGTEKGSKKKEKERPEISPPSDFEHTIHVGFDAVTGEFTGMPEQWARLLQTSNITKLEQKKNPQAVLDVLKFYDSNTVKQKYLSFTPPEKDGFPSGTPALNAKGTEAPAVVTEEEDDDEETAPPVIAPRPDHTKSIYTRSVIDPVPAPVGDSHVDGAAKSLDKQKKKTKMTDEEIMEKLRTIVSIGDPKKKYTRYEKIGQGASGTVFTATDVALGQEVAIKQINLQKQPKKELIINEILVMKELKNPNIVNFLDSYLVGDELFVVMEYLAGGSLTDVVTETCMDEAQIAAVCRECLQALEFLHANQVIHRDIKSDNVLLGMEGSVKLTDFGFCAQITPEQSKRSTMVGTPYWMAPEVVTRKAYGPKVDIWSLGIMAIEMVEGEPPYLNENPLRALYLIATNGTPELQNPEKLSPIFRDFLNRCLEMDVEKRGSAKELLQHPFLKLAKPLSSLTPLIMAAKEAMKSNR
Sequence of Glycogen synthase kinase-3 beta (Homo sapiens) (P49841 whole entry, looked up): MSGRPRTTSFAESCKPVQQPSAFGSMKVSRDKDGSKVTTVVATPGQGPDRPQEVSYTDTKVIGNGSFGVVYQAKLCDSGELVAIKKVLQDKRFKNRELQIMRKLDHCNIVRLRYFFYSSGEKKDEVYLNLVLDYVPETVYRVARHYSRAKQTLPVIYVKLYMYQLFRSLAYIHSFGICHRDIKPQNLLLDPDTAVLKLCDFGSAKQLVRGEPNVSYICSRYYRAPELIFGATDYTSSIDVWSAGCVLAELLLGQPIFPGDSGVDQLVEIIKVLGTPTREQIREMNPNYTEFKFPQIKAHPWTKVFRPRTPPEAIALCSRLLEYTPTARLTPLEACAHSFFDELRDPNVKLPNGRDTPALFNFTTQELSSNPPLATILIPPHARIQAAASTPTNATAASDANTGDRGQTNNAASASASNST
Sequence of Epidermal growth factor receptor (Homo sapiens) (P00533 whole entry, the tested form may be a part): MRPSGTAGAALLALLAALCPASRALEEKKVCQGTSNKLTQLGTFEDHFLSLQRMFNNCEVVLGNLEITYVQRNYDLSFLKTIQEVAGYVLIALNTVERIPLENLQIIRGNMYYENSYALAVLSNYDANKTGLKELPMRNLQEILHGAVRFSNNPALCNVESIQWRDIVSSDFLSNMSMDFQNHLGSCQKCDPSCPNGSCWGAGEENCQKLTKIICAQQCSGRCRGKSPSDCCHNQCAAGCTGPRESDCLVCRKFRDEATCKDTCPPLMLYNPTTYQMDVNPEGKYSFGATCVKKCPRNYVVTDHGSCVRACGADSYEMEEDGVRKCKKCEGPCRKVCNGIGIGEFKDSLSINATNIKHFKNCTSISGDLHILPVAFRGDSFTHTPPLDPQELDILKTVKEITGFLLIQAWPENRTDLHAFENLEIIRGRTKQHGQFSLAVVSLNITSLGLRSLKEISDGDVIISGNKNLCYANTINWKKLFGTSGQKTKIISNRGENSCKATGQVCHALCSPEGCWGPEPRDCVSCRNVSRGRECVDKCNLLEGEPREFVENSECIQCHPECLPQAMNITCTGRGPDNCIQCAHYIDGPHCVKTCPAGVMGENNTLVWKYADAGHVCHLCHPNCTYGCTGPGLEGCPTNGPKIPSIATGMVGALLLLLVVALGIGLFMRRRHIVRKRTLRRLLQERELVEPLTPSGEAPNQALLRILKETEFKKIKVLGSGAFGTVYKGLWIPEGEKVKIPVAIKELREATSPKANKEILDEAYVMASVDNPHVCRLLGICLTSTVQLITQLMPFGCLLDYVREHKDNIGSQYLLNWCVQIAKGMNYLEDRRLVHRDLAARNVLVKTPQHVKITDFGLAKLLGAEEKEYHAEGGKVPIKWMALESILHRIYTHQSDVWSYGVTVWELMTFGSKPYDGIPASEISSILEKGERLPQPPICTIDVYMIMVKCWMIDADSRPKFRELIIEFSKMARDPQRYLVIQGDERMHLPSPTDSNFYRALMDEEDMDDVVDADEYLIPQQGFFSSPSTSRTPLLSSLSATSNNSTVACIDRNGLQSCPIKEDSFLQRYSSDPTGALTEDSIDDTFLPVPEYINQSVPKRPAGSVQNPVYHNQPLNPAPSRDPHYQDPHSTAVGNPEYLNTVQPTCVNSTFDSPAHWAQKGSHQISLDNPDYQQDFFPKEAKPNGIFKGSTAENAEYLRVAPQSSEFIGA

In the case of `Clc1ccc(C2(c3ccc(-c4ncnc5[nH]cnc45)cc3)CCNCC2)cc1`, the inhibition [1] was 4.5% and the inhibition [2] was 16%.

Work on `c1nc(N2CCOCC2)c2nc[nH]c2n1` yielded an inhibition [3] of 86.5%.

With `NCC1CN(c2ncnc3[nH]c4cnccc4c23)CCO1` (centres undefined) the inhibition [4] was 12%, the inhibition [5] was 73% and the inhibition [6] was 3%.

With `NC1CCN(c2ncnc3[nH]ccc23)CC1` the inhibition [7] was 5%.

Work on `NCCc1ccc(-c2ncnc3[nH]cnc23)cc1` yielded an inhibition [8] of 87.5%.

Work on `CNCc1ccc(-c2ncnc3[nH]cnc23)cc1` yielded an inhibition [9] of 0%.
